Measurements taken from patent publication US11498896B2 (The Broad Institute, Inc., priority 2014, dated 2022).

Columns and labels:
human D2R/β-arrestin [1] = biological target: T1, human D2R/β-arrestin (Homo sapiens (Human), UniProt P14416); experiment: Gi/cAMP agonist assay (Lance Ultra cAMP, forskolin); type: cell-based; details: CHO-K1 cells expressing human D2R/β-arrestin; agonist mode, 2.5 μM forskolin
Experimental: Eu-cAMP tracer solution (10 μl, PerkinElmer, 360 μl of Tracer in 17.64 ml kit buffer) and ULight-anti-cAMP solution (10 μl, 120 μL antibody in 17.88 ml kit buffer) was then added to each well.

human D2R/β-arrestin [2] = biological target: T1, human D2R/β-arrestin; experiment: β-arrestin agonist assay (PathHunter); type: cell-based; details: CHO-K1 cells expressing human D2R/β-arrestin; agonist mode
Experimental: The detection reagent (9.6 μL, Buffer:Emerald II:Galactor-Star in a 19:5:1 ratio, i.e., 14.06 mL:3.7 mL:0.74 mL=18.5 mL) was then added to the agonist plates.

human D2R/β-arrestin [3] = biological target: T1, human D2R/β-arrestin; experiment: cell-based; details: cAMP Antagonist, CHO-K1 cells expressing human D2R/β-arrestin; antagonist mode, 2.5 μM forskolin and 2.7 nM quinpirole
human D2R/β-arrestin [4] = biological target: T1, human D2R/β-arrestin; experiment: cell-based; details: β-arrestin Antagonist, CHO-K1 cells expressing human D2R/β-arrestin; antagonist mode, quinpirole 130 nM

T1 sequence (P14416 whole entry): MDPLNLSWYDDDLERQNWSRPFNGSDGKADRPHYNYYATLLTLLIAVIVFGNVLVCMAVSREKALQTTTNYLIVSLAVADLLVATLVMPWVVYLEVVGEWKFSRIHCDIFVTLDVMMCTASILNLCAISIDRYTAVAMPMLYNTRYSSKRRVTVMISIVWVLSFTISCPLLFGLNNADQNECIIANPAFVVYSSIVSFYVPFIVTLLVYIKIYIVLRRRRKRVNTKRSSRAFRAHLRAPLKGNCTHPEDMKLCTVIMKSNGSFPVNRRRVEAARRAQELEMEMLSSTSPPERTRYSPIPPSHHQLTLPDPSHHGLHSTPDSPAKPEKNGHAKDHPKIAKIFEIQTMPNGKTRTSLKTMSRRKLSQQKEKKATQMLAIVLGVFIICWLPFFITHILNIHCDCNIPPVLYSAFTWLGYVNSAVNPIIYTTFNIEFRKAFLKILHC

Compound	EC50 (human D2R/β-arrestin [1]) [µM]	EC50 (human D2R/β-arrestin [2]) [µM]	IC50 (human D2R/β-arrestin [3]) [µM]	IC50 (human D2R/β-arrestin [4]) [µM]
CC1(O)CCN(CCOc2ccccc2)CC1 [Compound 130, 4-Methyl-1-(2-phenoxyethyl)piperidin-4-ol]	0.1 to 1	1 to 10	> 30	10 to 30
CC1(O)CCN(CCOc2ccccc2F)CC1 [Compound 131, 1-(2-(2-fluorophenoxy)ethyl)-4-methylpiperidin-4-ol]	< 0.1	0.1 to 1	> 30	1 to 10
CC1(O)CCN(CCOc2ccc(C(F)(F)F)cc2)CC1 [Compound 132, 4-methyl-1-(2-(4-(trifluoromethyl)phenoxy)ethyl)piperidin-4-ol]	> 30	> 30	1 to 10	10 to 30
C[C@]1(O)C[C@H]2CC[C@@H](C1)N2CCOc1ccccc1C(F)(F)F [Compound 133, 3-methyl-8-(2-(2-(trifluoromethyl)phenoxy)ethyl)-8-azabicyclo[3.2.1] octan-3-ol]	> 30	> 30	0.1 to 1	0.1 to 1
CC1(O)CCCN(CCOc2ccccc2C(F)(F)F)C1 (stereo not shown) [Compound 134, 3-Methyl-1-(2-(2-(trifluoromethyl)phenoxy)ethyl)piperidin-3-ol]	> 30	> 30	1 to 10	10 to 30
FC(F)(F)c1ccccc1OCCN1CCC2(CC1)CCN2c1ccc(Cl)cc1 [Compound 136, 1-(4-Chlorophenyl)-7-(2-(2-(trifluoromethyl)phenoxy)ethyl)-1,7-diazaspiro[3.5]nonane]	> 30	> 30	< 0.1	0.1 to 1
CC1(O)CCN(CCCOc2ccccc2C(F)(F)F)CC1 [Compound 138, 4-methyl-1-(3-(2-(trifluoromethyl)phenoxy)propyl)piperidin-4-ol]	> 30	> 30	0.1 to 1	0.1 to 1
CC1(O)CCN(CCOc2ccccc2C(F)(F)F)C1 (stereo not shown) [Compound 139, 3-Methyl-1-(2-(2-(trifluoromethyl)phenoxy)ethyl)pyrrolidin-3-ol]	> 30	> 30	1 to 10	1 to 10
CC1(Oc2ccccc2)CCN(CCOc2ccccc2S(C)(=O)=O)CC1 [Compound 141, 4-methyl-1-(2-(2-(methylsulfonyl)phenoxy)ethyl)-4-phenoxypiperidine]	1 to 10	> 30	0.1 to 1	0.1 to 1
CC1(Oc2ccc(Cl)cc2)CCN(CC2COc3ccccc3O2)CC1 (stereo not shown) [Compound 142, 4-(4-chlorophenoxy)-1-((2,3-dihydrobenzo[b][1,4]dioxin-2-yl)methyl)-4-methylpiperidine]	< 0.1	0.1 to 1	> 30	> 30
CC1(Oc2ccc(Cl)cc2)CCN(CCOC2CCCCC2)CC1 [Compound 143, 4-(4-chlorophenoxy)-1-(2-(cyclohexyloxy)ethyl)-4-methylpiperidine]	10 to 30	> 30	> 30	10 to 30
Clc1ccc2c(c1)C[C@@H]1CN(CCOc3ccccc3)C[C@H]1O2 [Compound 145, (3aS,9aR)-7-chloro-2-(2-phenoxyethyl)-1,2,3,3a,9,9a-hexahydrochromeno[2,3-c]pyrrole]	> 30	> 30	0.1 to 1	10 to 30
CC1(Oc2ccc(Cl)cc2)CCN(CCOc2ccc(S(C)(=O)=O)cc2)CC1 [Compound 152, 4-(4-chlorophenoxy)-4-methyl-1-(2-(4-(methylsulfonyl)phenoxy)ethyl)piperidine]	10 to 30	> 30	10 to 30	10 to 30
CC1(Oc2ccc(Cl)cc2)CCN(CCOc2ccc3c(c2)NC(=O)CC3)CC1 [Compound 166, 7-(2-(4-(4-chlorophenoxy)-4-methylpiperidin-1-yl)ethoxy)-3,4-dihydroquinolin-2(1H)-one]	1 to 10	> 30	1 to 10	1 to 10

Now from value to compound:

EC50 (human D2R/β-arrestin [1]) [µM]	EC50 (human D2R/β-arrestin [2]) [µM]	IC50 (human D2R/β-arrestin [3]) [µM]	IC50 (human D2R/β-arrestin [4]) [µM]	Compound
0.1 to 1	0.1 to 1	> 30	0.1 to 1	CC1(Oc2ccc(Cl)cc2)CCN(CCOc2ccccc2OC(F)(F)F)CC1 [Compound 146, 4-(4-chlorophenoxy)-4-methyl-1-(2-(2-(trifluoromethoxy)phenoxy)ethyl) piperidine]
< 0.1	< 0.1	> 30	> 30	CC1(Oc2ccc(Cl)cc2)CCN(CCOc2ccc(C(F)(F)F)nc2)CC1 [Compound 147, 5-(2-(4-(4-chlorophenoxy)-4-methylpiperidin-1-yl)ethoxy)-2-(trifluoromethyl)pyridine]
10 to 30	> 30	> 30	> 30	CC1(Oc2ccc(Cl)cc2)CCN(CCOc2ccc(C(F)(F)F)cn2)CC1 [Compound 148, 2-(2-(4-(4-chlorophenoxy)-4-methylpiperidin-1-yl)ethoxy)-5-(trifluoromethyl) pyridine]
< 0.1	0.1 to 1	> 30	1 to 10	CC1(Oc2ccc(Cl)cc2)CCN(CCOc2ccc(F)cc2)CC1 [Compound 149, 4-(4-chlorophenoxy)-1-(2-(4-fluorophenoxy)ethyl)-4-methylpiperidine]
< 0.1	0.1 to 1	> 30	> 30	Cc1ccc(OCCN2CCC(C)(Oc3ccc(Cl)cc3)CC2)cc1 [Compound 150, 4-(4-chlorophenoxy)-4-methyl-1-(2-(p-tolyloxy)ethyl)piperidine]
< 0.1	0.1 to 1	> 30	> 30	CC1(Oc2ccc(Cl)cc2)CCN(CCOc2ccc(Cl)cc2)CC1 [Compound 151, 4-(4-chlorophenoxy)-1-(2-(4-chlorophenoxy)ethyl)-4-methylpiperidine]
> 30	> 30	1 to 10	1 to 10	CC(=O)c1ccc(OCCN2CCC(C)(Oc3ccc(Cl)cc3)CC2)cc1 [Compound 153, 1-(4-(2-(4-(4-chlorophenoxy)-4-methylpiperidin-1-yl)ethoxy)phenyl)ethanone]
> 30	> 30	0.1 to 1	10 to 30	CC(O)c1ccc(OCCN2CCC(C)(Oc3ccc(Cl)cc3)CC2)cc1 (stereo not shown) [Compound 154, 1-(4-(2-(4-(4-chlorophenoxy)-4-methylpiperidin-1-yl)ethoxy)phenyl)ethanol]
> 30	> 30	1 to 10	1 to 10	CC1(Oc2ccc(Cl)cc2)CCN(CCOc2ccc(C(C)(C)O)cc2)CC1 [Compound 155, 2-(4-(2-(4-(4-chlorophenoxy)-4-methylpiperidin-1-yl)ethoxy)phenyl)propan-2-ol]
< 0.1	0.1 to 1	> 30	> 30	CC1(Oc2ccc(Cl)cc2)CCN(CCOc2cccc(F)c2C(F)(F)F)CC1 [Compound 156, 4-(4-chlorophenoxy)-1-(2-(3-fluoro-2-(trifluoromethyl)phenoxy)ethyl)-4-methylpiperidine]
0.1 to 1	> 30	0.1 to 1	1 to 10	CC1(Oc2ccc(Cl)cc2)CCN(CCOc2ccc(F)cc2S(C)(=O)=O)CC1 [Compound 158, 4-(4-chlorophenoxy)-1-(2-(4-fluoro-2-(methylsulfonyl)phenoxy)ethyl)-4-methylpiperidine]
< 0.1	> 30	1 to 10	0.1 to 1	COc1ccc(F)cc1OCCN1CCC(C)(Oc2ccc(Cl)cc2)CC1 [Compound 159, 4-(4-chlorophenoxy)-1-(2-(5-fluoro-2-methoxyphenoxy)ethyl)-4-methylpiperidine]
> 30	> 30	0.1 to 1	1 to 10	COc1cc(F)ccc1OCCN1CCC(C)(Oc2ccc(Cl)cc2)CC1 [Compound 160, 4-(4-chlorophenoxy)-1-(2-(4-fluoro-2-methoxyphenoxy)ethyl)-4-methyl piperidine]
< 0.1	0.1 to 1	> 30	10 to 30	CC1(Oc2ccc(Cl)cc2)CCN(CCOc2cncs2)CC1 [Compound 161, 5-(2-(4-(4-chlorophenoxy)-4-methylpiperidin-1-yl)ethoxy)thiazole]
1 to 10	> 30	< 0.1	0.1 to 1	CC1(Oc2ccc(Cl)cc2)CCN(CCOc2ncccc2C(F)(F)F)CC1 [Compound 162, 2-(2-(4-(4-chlorophenoxy)-4-methylpiperidin-1-yl)ethoxy)-3-(trifluoromethyl)pyridine]
< 0.1	1 to 10	> 30	> 30	CC1(Oc2ccc(Cl)cc2)CCN(CCOc2cccnc2C(F)(F)F)CC1 [Compound 163, 3-(2-(4-(4-chlorophenoxy)-4-methylpiperidin-1-yl)ethoxy)-2-(trifluoromethyl)pyridine]
1 to 10	10 to 30	> 30	1 to 10	CC1(Oc2ccc(Cl)cc2)CCN(CCOc2cc(Cl)ccc2C(F)(F)F)CC1 [Compound 165, 1-(2-(5-chloro-2-(trifluoromethyl)phenoxy)ethyl)-4-(4-chlorophenoxy)-4-methylpiperidine]
